Assay results: paper PMC6527222 (PLoS ONE, 2019)

Legend:
β2-AR [1] = settings: given as negative log value; cited from earlier work
JB6 P+ cells [2] = experiment: Anchorage-independent growth assay in soft agar (EGF-induced JB6 P+ colony formation); type: cell-based, mouse
Protocol: Ten ng/mL EGF was used to promote the anchorage-independent growth of JB6 cells. […] Plates were incubated at 37°C, 5% CO2 for 14 days. Colonies with greater than ten cells were counted manually under a microscope. […] Normalization allowed for comparison of data over a range of JB6 P+ cell cultures, passages, and experimental time for the shRNA studies, as well as control for variation in the EGF response, and importantly allowed for a direct comparison to all concentration-response experiments including the toxicity assays. […] All group sizes were determined via previous studies to provide statistically meaningful data. In the soft agar assays, key results were repeated with different JB6 P+ cells to confirm the results. Similarly, the shRNA studies were conducted with three independent concentration-response curves with different JB6 P+ cell stocks. […] For two sample comparisons a t-test was utilized, and when comparing multiple samples a One-, Two-, or Three-Factor ANOVA followed by Tukey-Kramer post hoc test was utilized depending on the data. For all tests, statistical difference was donated when p < 0.05. […] The I[…]*PSD is expressed in x-axis units (log [M]) as is an IC50 and it represents the first concentration where it is expected to observe a statistical decrease in the measured signal. […] Using the formula provided by GraphPad Prism or a straight line for the point-to-point graphs, the X-axis value for point Y was determined. The error is ascribed to this measurement via adding and subtracting the pooled standard deviation (PSD) to/from point Y generating point Y ± PSD. The two new points were then transformed to the X-axis units as was done for point Y creating an asymmetric error in sigmoidal plots. When the error was asymmetric, the larger error value was chosen to err on the conservative side. See S1 Fig for a pictoral explination of the method. The data is presented as I[…]*PSD ± error.

β2-AR [3] = system: β2-AR; set-up: method as in as printed in each cell (43-46, 48-54, 56-58); settings: as described in the references; ref (43-46, 48-54, 56-58); cited from earlier work
JB6 P+ cells [4] = experiment: Soft agar assay with competitive adrenergic receptor antagonists; type: cell-based; settings: Mus musculus, alone, CGP 12177 experiment (S2 Fig)
Protocol: Ten ng/mL EGF was used to promote the anchorage-independent growth of JB6 cells. […] Plates were incubated at 37°C, 5% CO2 for 14 days. Colonies with greater than ten cells were counted manually under a microscope. Antagonists identified in our assays as ineffective at blocking EGF-mediated transformation of JB6 P+ cells yet displaying no or little toxicity were used as competitive antagonists towards carvedilol-mediated prevention of EGF-induced transformation of JB6 P+ cells.

JB6 P+ cells [5] = experiment: SRB cytotoxicity assay; type: cell-based, mouse; settings: 72 hr; NT = no toxicity at any concentration tested
Protocol: 96-well plates were seeded with 3x10^3 JB6 P+ cells per well and allowed to attach overnight. […] Cell viability was determined using Sulforhodamine B (SRB) assay from Sigma-Aldrich according to the manufacturer’s protocol. Cellular protein content was measured using a Bio-Tek μQuant plate reader with KCJunior software.
Concentration-response curves were normalized so that the EGF positive control on each 96-well plate was set to 100% and the control wells on each plate were set to 0%. Toxicity assays (SRB and MTS) were normalized so that the control on each plate represented 100% viability. Normalization allowed for comparison of data over a range of JB6 P+ cell cultures, passages, and experimental time for the shRNA studies, as well as control for variation in the EGF response, and importantly allowed for a direct comparison to all concentration-response experiments including the toxicity assays. […] All group sizes were determined via previous studies to provide statistically meaningful data. In the soft agar assays, key results were repeated with different JB6 P+ cells to confirm the results. Similarly, the shRNA studies were conducted with three independent concentration-response curves with different JB6 P+ cell stocks. […] For two sample comparisons a t-test was utilized, and when comparing multiple samples a One-, Two-, or Three-Factor ANOVA followed by Tukey-Kramer post hoc test was utilized depending on the data. For all tests, statistical difference was donated when p < 0.05.
The IΔ2*PSD is expressed in x-axis units (log [M]) as is an IC50 and it represents the first concentration where it is expected to observe a statistical decrease in the measured signal.
Using the formula provided by GraphPad Prism or a straight line for the point-to-point graphs, the X-axis value for point Y was determined. The error is ascribed to this measurement via adding and subtracting the pooled standard deviation (PSD) to/from point Y generating point Y ± PSD. The two new points were then transformed to the X-axis units as was done for point Y creating an asymmetric error in sigmoidal plots. When the error was asymmetric, the larger error value was chosen to err on the conservative side. See S1 Fig for a pictoral explination of the method. The data is presented as IΔ2*PSD ± error.

IC50 (JB6 P+ cells [4]): 0.347 µM
Compound: OC(CNCC(O)C1CCc2cc(F)ccc2O1)C1CCc2cc(F)ccc2O1 (stereo not drawn) [Nebivolol]
Log Kd at β2-AR (β2-AR [1]): -7.91 ± 0.07 [47]
IC50 (JB6 P+ cells [2]; 10 ng/mL EGF, soft agar, read-out: IC50, inhibition of EGF-mediated transformation): ≤ 1 µM
IC50 (JB6 P+ cells [2]; Mus musculus, 10 ng/mL EGF, soft agar, read-out: IC50, inhibition of EGF-mediated transformation): 1.09 µM
IC50 (JB6 P+ cells [2]; Mus musculus, 336 h, 10 ng/mL EGF, 14 days, negative log value, read-out: Soft Agar Assay Log IC50 (converted)): 1.1 µM
minimal effective concentration (JB6 P+ cells [2]; Mus musculus, 336 h, 10 ng/mL EGF, 14 days, first concentration with expected statistical decrease, read-out: Soft Agar Assay Log IΔ2*PSD (converted)): 0.479 µM
Emax (JB6 P+ cells [2]; Mus musculus, efficacy of inhibition of colony formation, reported if non-toxic): 96.5 ± 7.24%
Pharmacological property at β2-AR (β2-AR [3]): Biased agonist/ activates ERK [46]
SRB Assay Log IΔ2*PSD (JB6 P+ cells [5]): -4.65 ± 0.19 log [M]
